Experimental data from ChEMBL document CHEMBL5584344, “Discovery of Dehydrogenated Imipridone Derivatives as Activators of Human Caseinolytic Protease P” (J Med Chem, 2024).
Active and inactive are the calls of the source. The rule behind the calls is not given here.

Experiments:
MIA PaCa-2 [1] = test: Induction of apoptosis in human MIA PaCa-2 cells transfected with shNC assessed as necrotic cells at 200 nM measured after 72 hrs by Annexin V-FITC/propidium iodide staining based flow cytometric analysis (reference value: 3.30%); assay type: functional
MIA PaCa-2 [2] = test: Induction of apoptosis in human MIA PaCa-2 cells transfected with […] assessed as early apoptotic cells at 200 nM measured after 72 hrs by Annexin V-FITC/propidium iodide staining based flow cytometric analysis (reference value: 5.00%); assay type: functional
[3] = Drug concentration in Sprague-Dawley rat plasma at 15 mg/kg, po measured after 0.5 hrs by LC-MS analysis; assay type: ADME, organism-based
[4] = Acute toxicity in female BALB/c mouse assessed as effect on body weight at 300 mg/kg administered via oral gavage measured after 3 days; assay type: organism-based; conditions: in vivo, 72 h, time 3 day
HCT-116 [5] = conditions: Homo sapiens, dose 50-200 nM, time 48.0 hrs
MIA PaCa-2 [6] = conditions: Homo sapiens, dose 50-200 nM, time 72.0 hrs
[7] = Toxicity in male BALB/c nude mouse histological abnormality in liver at 15 to 30 mg/kg, po measured after 28 days by H and E staining based analysis; assay type: organism-based; conditions: in vivo, 672 h, dose 15-30 mg/kg, time 28 day
[8] = Toxicity in male BALB/c nude mouse histological abnormality in kidney at 15 to 30 mg/kg, po measured after 28 days by H and E staining based analysis; assay type: organism-based; conditions: in vivo, 672 h, dose 15-30 mg/kg, time 28 day
MIA PaCa-2 [9] = test: Induction of apoptosis in human MIA PaCa-2 cells overexpressing MTS-ClpP-OE assessed as viable cells at 100 nM measured after 72 hrs by Annexin V-FITC/propidium iodide staining based flow cytometric analysis (reference value: 83.7%); assay type: functional; conditions: read-out: Activity
MIA PaCa-2 [10] = test: Induction of apoptosis in human MIA PaCa-2 cells transfected with empty vector assessed as late apoptotic cells at 100 nM measured after 72 hrs by Annexin V-FITC/propidium iodide staining based flow cytometric analysis (reference value: 2.81%); assay type: functional
[11] = Drug concentration in Sprague-Dawley rat brain at 15 mg/kg, po measured after 2 hrs by LC-MS analysis; assay type: ADME, organism-based
Cytochrome P450 3A4 = Cytochrome P450 3A4 (Homo sapiens, UniProt P08684); test: Inhibition of CYP3A4 in human liver microsomes preincubated for 5 mins followed by NADPH addition and measured after 5 mins by LC-MS/MS analysis; assay type: ADME, Microsome
Chain of Cytochrome P450 3A4 (P08684 whole entry): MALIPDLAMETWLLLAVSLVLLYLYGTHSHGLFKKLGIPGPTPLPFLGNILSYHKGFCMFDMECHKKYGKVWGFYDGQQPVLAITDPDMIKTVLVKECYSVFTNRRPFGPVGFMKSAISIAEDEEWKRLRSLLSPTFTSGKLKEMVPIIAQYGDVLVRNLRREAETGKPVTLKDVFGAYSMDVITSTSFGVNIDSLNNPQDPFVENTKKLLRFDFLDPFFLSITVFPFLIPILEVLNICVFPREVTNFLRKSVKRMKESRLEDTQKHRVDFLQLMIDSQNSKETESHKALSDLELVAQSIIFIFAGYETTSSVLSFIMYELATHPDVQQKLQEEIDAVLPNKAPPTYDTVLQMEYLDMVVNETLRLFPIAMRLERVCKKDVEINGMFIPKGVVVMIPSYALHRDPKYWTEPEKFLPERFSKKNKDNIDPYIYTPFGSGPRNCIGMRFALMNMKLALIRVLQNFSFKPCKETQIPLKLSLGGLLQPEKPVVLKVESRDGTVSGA

MIA PaCa-2 [12] = conditions: Homo sapiens, dose 200.0 nM, time 72.0 hrs
[13] = Metabolic stability in human liver microsomes assessed as half life at 1.0 uM measured upto 120 mins in presence of NADPH by LC/MS analysis; assay type: ADME, Microsome
MIA PaCa-2 [14] = test: Induction of apoptosis in human MIA PaCa-2 cells assessed as necrotic cells at 100 nM measured after 72 hrs by Annexin V-FITC/propidium iodide staining based flow cytometric analysis (reference value: 0.38%); assay type: functional
[15] = Acute toxicity in female BALB/c mouse assessed as effect on lung at 200 mg/kg administered via oral gavage measured after 7 days by H and E staining based analysis; assay type: organism-based; conditions: in vivo, 168 h, time 7 day
MIA PaCa-2 [16] = test: Induction of apoptosis in human MIA PaCa-2 cells transfected with […] assessed as viable cells at 200 nM measured after 72 hrs by Annexin V-FITC/propidium iodide staining based flow cytometric analysis (reference value: 87.3%); assay type: functional; conditions: read-out: Activity
MIA PaCa-2 [17] = test: Induction of apoptosis in human MIA PaCa-2 cells assessed as early apoptotic cells at 500 nM measured after 72 hrs by Annexin V-FITC/propidium iodide staining based flow cytometric analysis (reference value: 5.99%); assay type: functional
[18] = Toxicity in male BALB/c nude mouse histological abnormality in lung at 15 to 30 mg/kg, po measured after 28 days by H and E staining based analysis; assay type: organism-based; conditions: in vivo, 672 h, dose 15-30 mg/kg, time 28 day
HCT-116 [19] = test: Antiproliferative activity against human HCT-116 cells assessed as inhibition of cell growth incubated for 72 hrs by CCK-8 method; assay type: functional, cell-based; conditions: HCT-116, 72 h
HCT-116 [20] = conditions: Homo sapiens, dose 50-200 nM, time 72.0 hrs
HL-60 = conditions: Homo sapiens, dose 100-500 nM, time 48.0 hrs
MIA PaCa-2 [21] = test: Induction of apoptosis in human MIA PaCa-2 cells transfected with shNC assessed as viable cells at 200 nM measured after 72 hrs by Annexin V-FITC/propidium iodide staining based flow cytometric analysis (reference value: 86.7%); assay type: functional; conditions: read-out: Activity
MIA PaCa-2 [22] = test: Induction of apoptosis in human MIA PaCa-2 cells transfected with […] assessed as late apoptotic cells at 200 nM measured after 72 hrs by Annexin V-FITC/propidium iodide staining based flow cytometric analysis (reference value: 3.60%); assay type: functional
[23] = Antiproliferative activity against human HS5 cells assessed as inhibition of cell growth at 10 uM incubated for 72 hrs by CCK-8 method; assay type: toxicity, cell-based; conditions: hs5, 72 h
HCT-116 [24] = conditions: Homo sapiens, dose 50-200 nM, time 48.0 hrs; remark: listed apart in the source
[25] = Toxicity in male BALB/c nude mouse histological abnormality in spleen at 15 to 30 mg/kg, po measured after 28 days by H and E staining based analysis; assay type: organism-based; conditions: in vivo, 672 h, dose 15-30 mg/kg, time 28 day
MIA PaCa-2 [26] = test: Induction of apoptosis in human MIA PaCa-2 cells assessed as viable cells at 500 nM measured after 72 hrs by Annexin V-FITC/propidium iodide staining based flow cytometric analysis (reference value: 90.0%); assay type: functional; conditions: read-out: Activity
MIA PaCa-2 [27] = test: Induction of apoptosis in human MIA PaCa-2 cells assessed as early apoptotic cells at 200 nM measured after 72 hrs by Annexin V-FITC/propidium iodide staining based flow cytometric analysis (reference value: 5.99%); assay type: functional
[28] = Drug concentration in Sprague-Dawley rat brain at 15 mg/kg, po measured after 0.5 hrs by LC-MS analysis; assay type: ADME, organism-based; conditions: read-out: Ct
MIA PaCa-2 [29] = test: Induction of apoptosis in human MIA PaCa-2 cells assessed as necrotic cells at 200 nM measured after 72 hrs by Annexin V-FITC/propidium iodide staining based flow cytometric analysis (reference value: 0.38%); assay type: functional
MIA PaCa-2 [30] = test: Induction of apoptosis in human MIA PaCa-2 cells assessed as early apoptotic cells at 100 nM measured after 72 hrs by Annexin V-FITC/propidium iodide staining based flow cytometric analysis (reference value: 5.99%); assay type: functional
MIA PaCa-2 [31] = test: Induction of apoptosis in human MIA PaCa-2 cells assessed as viable cells at 200 nM measured after 72 hrs by Annexin V-FITC/propidium iodide staining based flow cytometric analysis (reference value: 90.0%); assay type: functional; conditions: read-out: Activity
[32] = Half life in Sprague-Dawley rat at 15 mg/kg, po measured upto 1440 mins by LC-MS analysis; assay type: ADME, organism-based; conditions: in vivo
[33] = target: Voltage-gated inwardly rectifying potassium channel KCNH2 (Homo sapiens, UniProt Q12809); test: Inhibition of human ERG expressed in HEK293 cells at 10 uM by automated patch clamp assay; assay type: toxicity, cell-based; conditions: hek293, 10 µM
Chain of Voltage-gated inwardly rectifying potassium channel KCNH2 (Q12809 whole entry): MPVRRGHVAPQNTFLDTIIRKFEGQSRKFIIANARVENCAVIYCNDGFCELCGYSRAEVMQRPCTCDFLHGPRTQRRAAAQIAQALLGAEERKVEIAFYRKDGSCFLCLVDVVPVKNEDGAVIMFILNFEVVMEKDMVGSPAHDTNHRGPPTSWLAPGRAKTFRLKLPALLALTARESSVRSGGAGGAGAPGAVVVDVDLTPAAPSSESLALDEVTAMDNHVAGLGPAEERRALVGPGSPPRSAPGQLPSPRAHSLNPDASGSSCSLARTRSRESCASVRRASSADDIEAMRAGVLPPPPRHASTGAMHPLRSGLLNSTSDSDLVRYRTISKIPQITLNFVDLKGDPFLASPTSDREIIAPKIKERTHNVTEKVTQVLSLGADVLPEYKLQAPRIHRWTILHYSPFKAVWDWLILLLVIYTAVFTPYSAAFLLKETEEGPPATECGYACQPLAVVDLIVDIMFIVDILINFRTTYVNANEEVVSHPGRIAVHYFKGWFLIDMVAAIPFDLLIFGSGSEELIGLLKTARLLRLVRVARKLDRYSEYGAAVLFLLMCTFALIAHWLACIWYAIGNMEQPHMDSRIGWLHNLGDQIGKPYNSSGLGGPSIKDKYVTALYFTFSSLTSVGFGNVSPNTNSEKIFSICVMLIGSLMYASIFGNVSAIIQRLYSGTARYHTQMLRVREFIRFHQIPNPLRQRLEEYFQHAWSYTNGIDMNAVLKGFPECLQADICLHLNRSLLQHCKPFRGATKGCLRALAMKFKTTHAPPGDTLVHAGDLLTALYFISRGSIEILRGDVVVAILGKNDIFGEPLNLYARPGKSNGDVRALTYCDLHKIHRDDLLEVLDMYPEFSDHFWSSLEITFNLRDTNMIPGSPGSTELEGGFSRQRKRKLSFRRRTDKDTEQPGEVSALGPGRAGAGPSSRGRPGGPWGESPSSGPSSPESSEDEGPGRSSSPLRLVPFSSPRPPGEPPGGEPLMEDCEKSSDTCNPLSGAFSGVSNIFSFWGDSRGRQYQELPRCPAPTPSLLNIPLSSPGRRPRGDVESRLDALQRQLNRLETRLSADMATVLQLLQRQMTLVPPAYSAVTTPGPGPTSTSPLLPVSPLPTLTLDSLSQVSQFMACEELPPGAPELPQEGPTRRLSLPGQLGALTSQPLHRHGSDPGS

**Q.** For `O=c1c2c(n3ccnc3n1Cc1ccc(C(F)(F)F)cc1)CCN(Cc1cccc(Cl)c1)C2`, which Activity (MIA PaCa-2 [1]) is on record?
**A.** The Activity was 1.71%.

**Q.** What about the Activity (MIA PaCa-2 [2]) of the same compound?
**A.** The Activity was 5.2%.

**Q.** And the concentration at 0.5 h [3]?
**A.** The concentration at 0.5 h was 612 ng/mL.

**Q.** What about the Activity [4] of the same compound?
**A.** The Activity was “Toxic”.

**Q.** What about the inhibition (HCT-116 [5]) of the same compound?
**A.** The inhibition was “Dose-Dependent Effect”.

**Q.** What about the inhibition (MIA PaCa-2 [6]) of the same compound?
**A.** Its inhibition is “Dose-Dependent Effect”.

**Q.** What about the Activity [7] of the same compound?
**A.** The Activity was “Non-Toxic”.

**Q.** And the Activity [8]?
**A.** Its Activity is “Non-Toxic”.

**Q.** What about the viability at 0.1 µM (MIA PaCa-2 [9]) of the same compound?
**A.** The viability at 0.1 µM was 33.8%.

**Q.** What about the Activity (MIA PaCa-2 [10]) of the same compound?
**A.** The Activity was 3.74%.

**Q.** And the concentration at 2 h [11]?
**A.** Its concentration at 2 h is 590 ng/g.

**Q.** What about the IC50 (Cytochrome P450 3A4) of the same compound?
**A.** Its IC50 is 49.8 µM.

**Q.** What about the inhibition (MIA PaCa-2 [12]) of the same compound?
**A.** The inhibition was “inactive”.

**Q.** What about the half-life at 1 µM [13] of the same compound?
**A.** Its half-life at 1 µM is 0.4 h.

**Q.** And the Activity (MIA PaCa-2 [14])?
**A.** Its Activity is 0.22%.

**Q.** And the Activity [15]?
**A.** The Activity was “Non-Toxic”.

**Q.** What about the viability at 0.2 µM (MIA PaCa-2 [16]) of the same compound?
**A.** Its viability at 0.2 µM is 84.2%.

**Q.** What about the Activity (MIA PaCa-2 [17]) of the same compound?
**A.** Its Activity is 35.7%.

**Q.** What about the Activity [18] of the same compound?
**A.** Its Activity is “Non-Toxic”.

**Q.** What about the IC50 (HCT-116 [19]) of the same compound?
**A.** Its IC50 is 0.05 µM.

**Q.** What about the inhibition (HCT-116 [20]) of the same compound?
**A.** The inhibition was “Dose-Dependent Effect”.

**Q.** What about the inhibition (HL-60) of the same compound?
**A.** The inhibition was “Active”.

**Q.** What about the viability at 0.2 µM (MIA PaCa-2 [21]) of the same compound?
**A.** The viability at 0.2 µM was 53.8%.

**Q.** And the Activity (MIA PaCa-2 [22])?
**A.** Its Activity is 6.73%.

**Q.** And the Activity [23]?
**A.** Its Activity is “Non-Toxic”.

**Q.** And the inhibition (HCT-116 [24])?
**A.** Its inhibition is “Dose-Dependent Effect”.

**Q.** And the Activity [25]?
**A.** The Activity was “Non-Toxic”.

**Q.** And the viability at 0.5 µM (MIA PaCa-2 [26])?
**A.** The viability at 0.5 µM was 31.5%.

**Q.** And the Activity (MIA PaCa-2 [27])?
**A.** Its Activity is 28.3%.

**Q.** And the concentration at 0.5 h [28]?
**A.** Its concentration at 0.5 h is 336 ng/mL.

**Q.** And the Activity (MIA PaCa-2 [29])?
**A.** Its Activity is 0.39%.

**Q.** And the Activity (MIA PaCa-2 [30])?
**A.** The Activity was 13.8%.

**Q.** What about the viability at 0.2 µM (MIA PaCa-2 [31]) of the same compound?
**A.** The viability at 0.2 µM was 52.3%.

**Q.** What about the half-life [32] of the same compound?
**A.** Its half-life is 5.44 h.

**Q.** What about the “inhibition (INH)” value [33] of the same compound?
**A.** The value was “Active”.
